System: piroxicam-induced gastric ulcers
Test: suppression of piroxicam-induced gastric ulcers by interventions (PBN, free radical scavengers, ascorbate)
Type: in vivo, rat (male Sprague-Dawley)
Description: FIG. 2 is a graph of % control ulceration from piroxicam versus the % ulceration in the presence of free radical scavengers. The […] scavenger dimethylthiourea (DMTU, 500 mg/kg i.p.) was given 24 hours and 1 hour before piroxicam. […] The antioxidant butylated hydroxytoluene (BHT, 25 mg/kg/day i.p. in corn oil) was given for three days before and again 1 hour before piroxicam. The % control ulceration is determined by averaging the ratios of cm^2 ulceration in control stomachs from rats given piroxicam alone, and multiplying×100. +P< 0.01 compared to piroxicam alone.
Male Sprague-Dawley rats (Charles River, Wilmington, Mass.) weighing 300-325 g were housed individually in wire bottomed cages to prevent ingestion of hair and feces. Animals were maintained without food for 48 hours and without water for 24 hours prior to each experiment. Piroxicam or aspirin and other NSAIDS were suspended in a vehicle of 1% carboxymethylcellulose, 0.1% Tween 80 and 0.15 M HCl, and administered in a volume of 1 ml on the morning of study by oral gavage using an 18 gauge curved blunt needle (Popper and Sons, New Hyde Park, N.Y.). One ml of vehicle alone was administered for control experiments. HCl was added to the vehicle to insure an acid environment in the stomach in all studies. […] Four hours after the administration of NSAID or vehicle, rats were euthanized with sodium pentobarbital (100 mg/kg IP), and the surface area of ulceration per stomach was quantitated using morphometric techniques. Stomachs were removed, the lumen was exposed by an incision along the radius of greater curvature, and the stomach was washed in phosphate buffered saline. The luminal surface was laid out on a flat surface with gross folds removed by gentle distension. The percentage of surface involved with submucosal hemorrhage was then determined by point counting, as described by Weibel, E. R. Stereological Methods: Practical Methods for Biological Morphometry. Academic Press, New York 1980. This was done by tabulation of the percentage of points over ulcerations using a point counting eyepiece graticle (16×16 points in a square format). At the 12X magnification used on the Wild dissecting microscope (Wild-Heerbrugg, Basel, Switzerland), the graticle covered a 1 cm^2 area of the surface. Four to five non-overlapping sampling sites were taken to fully cover the exposed surface. To determine the total luminal surface area, the outline of the outer boundary of the stomach was traced using a transparent acetate sheet, and the area was determined from planimetry. The surface area of ulcerated regions per stomach was then determined by multiplying the surface density of ulceration regions by the luminal surface area of the stomach.
Differences in total luminal surface area in cm^2, surface area of ulcerated regions per stomach and biochemical analyses between each treatment intervention and its corresponding untreated control group are compared using the Mann-Whitney U Test, Dixon, W. J., Massey, F. J., Jr. Introduction to statistical methods, 4th edition. (New York: McGraw Hill, 1983). […] In vitro studies are compared using the Student's unpaired T-test, Dixon, W. J., Massey, F. J., Jr. Introduction to statistical methods, 4th edition. (New York: McGraw Hill, 1983). Values are expressed as mean±SEM. Significance is assumed when P<0.05.
In each experiment, the surface area of gastric ulceration produced by piroxicam in 15 treated rats was compared to that in 15 rats of the same age and size that were fasted simultaneously but which received no intervention. Phenylbutyl nitrone (30 mg/kg) was given orally in water 1 hour before piroxicam and also added to vehicle when piroxicam was administered. When intervention were given with piroxicam, the pH of the final mixture was adjusted if necessary to equal that of piroxicam and vehicle alone.

Question: Which results are given for `CN1C(C(=O)Nc2ccccn2)=C(O)c2ccccc2S1(=O)=O` [piroxicam]?
Answer: ulceration (ascorbate experiment) (ascorbate-treated stomachs (with piroxicam) vs piroxicam alone, P<0.001): 0.031±0.009 cm^2; ulcerations/unit area (piroxicam 23 mg/kg only, or plus PBN 30 mg/kg orally 1 hour before and with piroxicam, p<0.0052): 0.229±0.145 ulcerations/unit area
